ChEMBL document CHEMBL1201862, “PubChem BioAssay data set” (2004)
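A five-concentration, 48-hour dose response in 96-well plates underlies each endpoint, interpolated linearly between surrounding concentrations. GI50 marks 50% less growth.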 The source made the active and inactive calls. Rule as the data show it: active = GI50 up to about 1.1 µM and inactive = higher.

Key:
Test in all cases: DTP human tumour cell line panel, 48 h
KM12 = test system: KM12
OVCAR-5 = test system: OVCAR-5
HCT-116 = test system: HCT-116
SNB-75 = test system: SNB-75
BT-549 = test system: BT-549
NCI-H23 = test system: NCI-H23
MDA-N = test system: MDA-N
UACC-257 = test system: UACC-257
A549 = test system: A549
M14 = test system: M14
UACC-62 = test system: UACC-62
T47D = test system: T47D
PC-3 = test system: PC-3
SK-MEL-2 = test system: SK-MEL-2
TK-10 = test system: TK-10
HOP-62 = test system: HOP-62
786-0 = test system: 786-0
HOP-92 = test system: HOP-92
COLO 205 = test system: COLO 205
SK-OV-3 = test system: SK-OV-3
HCC 2998 = test system: HCC 2998
SNB-19 = test system: SNB-19
SF-268 = test system: SF-268
Hs-578T = test system: Hs-578T
NCI-H226 = test system: NCI-H226
NCI-H460 = test system: NCI-H460
IGROV-1 = test system: IGROV-1
U-251 = test system: U-251
LOX IMVI = test system: LOX IMVI
HT-29 = test system: HT-29
SW-620 = test system: SW-620
DU-145 = test system: DU-145
RPMI-8226 = test system: RPMI-8226
K562 = test system: K562
MDA-MB-435 = test system: MDA-MB-435
UO-31 = test system: UO-31
MDA-MB-231 = test system: MDA-MB-231
OVCAR-4 = test system: OVCAR-4
OVCAR-8 = test system: OVCAR-8
RXF 393 = test system: RXF 393
SR = test system: SR
EKVX = test system: EKVX
ACHN = test system: ACHN
SN12C = test system: SN12C
MOLT-4 = test system: MOLT-4
SK-MEL-28 = test system: SK-MEL-28
HCT-15 = test system: HCT-15
MCF7 = test system: MCF7
A498 = test system: A498
SF-539 = test system: SF-539
NCI/ADR-RES = test system: NCI/ADR-RES
OVCAR-3 = test system: OVCAR-3
CCRF-CEM = test system: CCRF-CEM
SF-295 = test system: SF-295
CAKI-1 = test system: CAKI-1
SK-MEL-5 = test system: SK-MEL-5
HL-60 = test system: HL-60

## N#C[C@H](C(=O)c1ccccc1F)c1nc2ccccc2[nH]1
KM12
  GI50: 96.2 µM (inactive)
OVCAR-5
  GI50: > 100 µM (inactive)
HCT-116
  GI50: > 100 µM (inactive)
SNB-75
  GI50: 82.6 µM (inactive)
BT-549
  GI50: > 100 µM (inactive)
NCI-H23
  GI50: > 100 µM (inactive)
MDA-N
  GI50: > 100 µM (inactive)
UACC-257
  GI50: > 100 µM (inactive)
A549
  GI50: > 100 µM (inactive)
M14
  GI50: > 100 µM (inactive)
UACC-62
  GI50: > 100 µM (inactive)
T47D
  GI50: > 100 µM (inactive)
PC-3
  GI50: > 100 µM (inactive)
SK-MEL-2
  GI50: > 100 µM (inactive)
TK-10
  GI50: > 100 µM (inactive)
HOP-62
  GI50: > 100 µM (inactive)
786-0
  GI50: > 100 µM (inactive)
HOP-92
  GI50: > 100 µM (inactive)
COLO 205
  GI50: > 100 µM (inactive)
SK-OV-3
  GI50: > 100 µM (inactive)
HCC 2998
  GI50: > 100 µM (inactive)
SNB-19
  GI50: > 100 µM (inactive)
SF-268
  GI50: > 100 µM (inactive)
Hs-578T
  GI50: 85.5 µM (inactive)
NCI-H226
  GI50: > 100 µM (inactive)
NCI-H460
  GI50: > 100 µM (inactive)
IGROV-1
  GI50: 60.7 µM (inactive)
U-251
  GI50: > 100 µM (inactive)
LOX IMVI
  GI50: > 100 µM (inactive)
HT-29
  GI50: 69.2 µM (inactive)
SW-620
  GI50: > 100 µM (inactive)
DU-145
  GI50: > 100 µM (inactive)
RPMI-8226
  GI50: > 100 µM (inactive)
K562
  GI50: > 100 µM (inactive)
MDA-MB-435
  GI50: > 100 µM (inactive)
UO-31
  GI50: 93.1 µM (inactive)
MDA-MB-231
  GI50: > 100 µM (inactive)
OVCAR-4
  GI50: > 100 µM (inactive)
OVCAR-8
  GI50: > 100 µM (inactive)
RXF 393
  GI50: > 100 µM (inactive)
SR
  GI50: 58.9 µM (inactive)
EKVX
  GI50: > 100 µM (inactive)
ACHN
  GI50: > 100 µM (inactive)
SN12C
  GI50: > 100 µM (inactive)
MOLT-4
  GI50: > 100 µM (inactive)
SK-MEL-28
  GI50: > 100 µM (inactive)
HCT-15
  GI50: > 100 µM
MCF7
  GI50: 92 µM (inactive)
A498
  GI50: 87.9 µM (inactive)
SF-539
  GI50: > 100 µM (inactive)
NCI/ADR-RES
  GI50: > 100 µM (inactive)
OVCAR-3
  GI50: > 100 µM (inactive)
CCRF-CEM
  GI50: 53 µM (inactive)
SF-295
  GI50: > 100 µM (inactive)
CAKI-1
  GI50: > 100 µM (inactive)

## Cc1cnc(-c2c[nH]c3ccccc23)nc1-c1c[nH]c2ccccc12
KM12
  GI50: 3.78 µM (inactive)
OVCAR-5
  GI50: 5.5 µM (inactive)
HCT-116
  GI50: 4.56 µM (inactive)
SNB-75
  GI50: 2.39 µM (inactive)
BT-549
  GI50: 19 µM (inactive)
MDA-N
  GI50: 4.2 µM (inactive)
UACC-257
  GI50: 6.82 µM (inactive)
A549
  GI50: 3.64 µM (inactive)
M14
  GI50: 4.32 µM (inactive)
UACC-62
  GI50: 4.27 µM (inactive)
T47D
  GI50: 1.75 µM (inactive)
PC-3
  GI50: 3.49 µM (inactive)
SK-MEL-2
  GI50: 6.44 µM (inactive)
TK-10
  GI50: 5.31 µM (inactive)
HOP-62
  GI50: 11.7 µM (inactive)
786-0
  GI50: 3.58 µM (inactive)
HOP-92
  GI50: 2.03 µM (inactive)
COLO 205
  GI50: 4.58 µM (inactive)
SK-OV-3
  GI50: 11.2 µM (inactive)
HCC 2998
  GI50: 4.67 µM (inactive)
SNB-19
  GI50: 7.89 µM (inactive)
SF-268
  GI50: 15.9 µM (inactive)
Hs-578T
  GI50: 17.9 µM (inactive)
NCI-H460
  GI50: 2.65 µM (inactive)
IGROV-1
  GI50: 1.14 µM (inactive)
U-251
  GI50: 6.46 µM (inactive)
LOX IMVI
  GI50: 3.62 µM (inactive)
HT-29
  GI50: 4.18 µM (inactive)
SW-620
  GI50: 11.5 µM (inactive)
DU-145
  GI50: 6.73 µM (inactive)
RPMI-8226
  GI50: 3.9 µM (inactive)
K562
  GI50: 3.3 µM (inactive)
MDA-MB-435
  GI50: 5.87 µM (inactive)
SK-MEL-5
  GI50: 6.97 µM (inactive)
HL-60
  GI50: 5 µM (inactive)
UO-31
  GI50: 6.97 µM (inactive)
MDA-MB-231
  GI50: 2.31 µM (inactive)
OVCAR-4
  GI50: 5.2 µM (inactive)
OVCAR-8
  GI50: 6.08 µM (inactive)
SR
  GI50: 11.3 µM (inactive)
EKVX
  GI50: 6.21 µM (inactive)
ACHN
  GI50: 2.94 µM (inactive)
SN12C
  GI50: 1.68 µM (inactive)
MOLT-4
  GI50: 4.2 µM (inactive)
HCT-15
  GI50: 5.81 µM
MCF7
  GI50: 3.05 µM (inactive)
A498
  GI50: 2.6 µM (inactive)
SF-539
  GI50: 11.7 µM (inactive)
NCI/ADR-RES
  GI50: 7.67 µM (inactive)
OVCAR-3
  GI50: 8.13 µM (inactive)
CCRF-CEM
  GI50: 1.52 µM (inactive)
SF-295
  GI50: 3.29 µM (inactive)
CAKI-1
  GI50: 5.4 µM (inactive)
